34 molecules from ChEMBL document CHEMBL1287723, “The discovery of new spirocyclic muscarinic M3 antagonists” (Bioorg Med Chem Lett, 2010) can be followed below.

Data set [1] has as its target T1, Muscarinic acetylcholine receptor M3 (Homo sapiens, UniProt P20309). Nature of the data set: Displacement of [3H]NMS from human muscarinic M3 receptor expressed in CHO-K1 cells after 16 hrs by scintillation proximity assay. Format: cell-based. In general terms: Loss of bound radioactivity is the signal in a displacement assay; it reports binding, not function.
Target sequence in this assay (P20309 whole entry): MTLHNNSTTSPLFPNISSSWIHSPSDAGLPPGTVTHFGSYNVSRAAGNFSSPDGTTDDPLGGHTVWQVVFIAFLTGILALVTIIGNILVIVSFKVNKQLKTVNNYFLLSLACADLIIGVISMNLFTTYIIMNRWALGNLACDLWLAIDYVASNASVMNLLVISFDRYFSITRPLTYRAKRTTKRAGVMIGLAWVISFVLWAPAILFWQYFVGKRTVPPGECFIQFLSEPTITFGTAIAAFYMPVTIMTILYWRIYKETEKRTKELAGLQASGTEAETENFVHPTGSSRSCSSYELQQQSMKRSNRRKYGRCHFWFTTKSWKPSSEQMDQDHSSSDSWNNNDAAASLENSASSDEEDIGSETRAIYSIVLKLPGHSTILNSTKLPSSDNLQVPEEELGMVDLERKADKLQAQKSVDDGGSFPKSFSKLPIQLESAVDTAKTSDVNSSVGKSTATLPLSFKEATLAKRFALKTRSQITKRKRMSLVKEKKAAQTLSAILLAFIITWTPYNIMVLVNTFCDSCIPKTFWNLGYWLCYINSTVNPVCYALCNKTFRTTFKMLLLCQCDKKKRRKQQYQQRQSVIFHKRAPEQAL
The target in data set [2] is T2, Muscarinic acetylcholine receptor M2 (Homo sapiens, UniProt P08172).
T2 sequence (P08172 whole entry): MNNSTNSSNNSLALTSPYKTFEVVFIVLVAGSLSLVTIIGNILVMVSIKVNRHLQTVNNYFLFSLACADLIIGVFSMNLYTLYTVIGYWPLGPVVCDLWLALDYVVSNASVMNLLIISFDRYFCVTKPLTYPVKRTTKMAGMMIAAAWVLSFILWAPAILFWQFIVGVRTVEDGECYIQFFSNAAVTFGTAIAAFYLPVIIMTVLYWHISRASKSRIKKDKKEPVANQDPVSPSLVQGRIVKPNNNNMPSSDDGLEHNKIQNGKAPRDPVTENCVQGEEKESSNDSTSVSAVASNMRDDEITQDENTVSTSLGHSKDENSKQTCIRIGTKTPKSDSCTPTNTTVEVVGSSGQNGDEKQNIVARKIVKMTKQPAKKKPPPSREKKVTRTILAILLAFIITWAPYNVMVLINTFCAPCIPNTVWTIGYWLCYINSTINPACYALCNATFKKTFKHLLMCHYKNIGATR
Put plainly: Displacement of [3H]NMS from human muscarinic M2 receptor expressed in CHO-K1 cells after 16 hrs by scintillation proximity assay. Format: cell-based.

In data set [3] the target is T3, Muscarinic acetylcholine receptor M1 (Homo sapiens, UniProt P11229).
T3 sequence (P11229 whole entry): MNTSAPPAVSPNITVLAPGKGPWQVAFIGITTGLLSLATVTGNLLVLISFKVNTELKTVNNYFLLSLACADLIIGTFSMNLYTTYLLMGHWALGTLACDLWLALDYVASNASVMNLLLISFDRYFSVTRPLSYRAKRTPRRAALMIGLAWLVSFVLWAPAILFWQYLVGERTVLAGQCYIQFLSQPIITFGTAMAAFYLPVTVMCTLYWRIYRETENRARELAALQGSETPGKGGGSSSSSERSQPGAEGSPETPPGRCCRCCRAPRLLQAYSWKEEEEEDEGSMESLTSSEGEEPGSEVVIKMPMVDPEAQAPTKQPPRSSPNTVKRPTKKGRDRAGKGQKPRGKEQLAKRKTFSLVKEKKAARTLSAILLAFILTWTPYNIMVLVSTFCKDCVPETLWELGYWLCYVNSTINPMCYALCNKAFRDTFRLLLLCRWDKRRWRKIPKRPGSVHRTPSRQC
Nature of the data set: Displacement of [3H]NMS from human muscarinic M1 receptor expressed in CHO-K1 cells after 16 hrs by scintillation proximity assay. Format: cell-based.

Data set [4] concerns the target T4, Muscarinic acetylcholine receptor M4 (Homo sapiens, UniProt P08173).
T4 sequence (P08173 whole entry): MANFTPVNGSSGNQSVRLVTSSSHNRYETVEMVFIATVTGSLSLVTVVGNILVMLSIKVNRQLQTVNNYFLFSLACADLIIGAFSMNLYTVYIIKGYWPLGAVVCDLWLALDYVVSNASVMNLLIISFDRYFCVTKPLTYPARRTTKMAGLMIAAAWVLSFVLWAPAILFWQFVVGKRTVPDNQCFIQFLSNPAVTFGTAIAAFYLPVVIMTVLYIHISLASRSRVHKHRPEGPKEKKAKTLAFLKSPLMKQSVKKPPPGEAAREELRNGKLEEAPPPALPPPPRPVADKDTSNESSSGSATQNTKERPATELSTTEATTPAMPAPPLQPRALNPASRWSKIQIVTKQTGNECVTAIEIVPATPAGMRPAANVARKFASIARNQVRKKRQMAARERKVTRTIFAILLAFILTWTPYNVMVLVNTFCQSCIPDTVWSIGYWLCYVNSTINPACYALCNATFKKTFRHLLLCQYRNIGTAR
Put plainly: Displacement of [3H]NMS from human muscarinic M4 receptor expressed in CHO-K1 cells after 16 hrs by scintillation proximity assay. Format: cell-based.

Data set [5] concerns the target T5, Muscarinic acetylcholine receptor M5 (Homo sapiens, UniProt P08912).
T5 sequence (P08912 whole entry): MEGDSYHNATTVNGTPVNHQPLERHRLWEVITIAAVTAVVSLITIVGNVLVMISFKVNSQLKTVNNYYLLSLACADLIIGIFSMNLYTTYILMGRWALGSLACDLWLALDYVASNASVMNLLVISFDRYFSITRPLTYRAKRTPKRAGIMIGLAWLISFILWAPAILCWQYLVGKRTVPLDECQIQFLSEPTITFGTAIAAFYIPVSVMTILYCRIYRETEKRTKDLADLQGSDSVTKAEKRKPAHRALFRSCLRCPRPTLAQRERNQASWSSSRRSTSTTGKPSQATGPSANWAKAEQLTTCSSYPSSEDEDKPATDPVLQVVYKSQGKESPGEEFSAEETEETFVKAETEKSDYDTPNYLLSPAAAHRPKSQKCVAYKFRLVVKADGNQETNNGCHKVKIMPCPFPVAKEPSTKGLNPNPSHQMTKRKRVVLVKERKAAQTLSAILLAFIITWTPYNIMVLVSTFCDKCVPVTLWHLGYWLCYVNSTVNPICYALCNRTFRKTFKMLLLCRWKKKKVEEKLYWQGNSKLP
Put plainly: Displacement of [3H]NMS from human muscarinic M5 receptor expressed in CHO-K1 cells after 16 hrs by scintillation proximity assay. Format: cell-based.

In data set [6] the target is T1, Muscarinic acetylcholine receptor M3. Put plainly: Displacement of [3H]NMS from human muscarinic M3 receptor expressed in CHO-K1 cells at 1 uM after 16 hrs by scintillation proximity assay. Format: cell-based.
Target sequence in this assay (P20309 whole entry, looked up): as the sequence (P20309 whole entry) above
Data set [7] is described as follows: Clearance in human microsomes. Format: ADME, Microsome.
Data set [8] relates to Hepatocyte. Put plainly: Clearance in rat hepatocytes. Format: ADME, cell-based, Liver.
A short description of data set [9]: Lipophilicity, log D of the compound. Format: physicochemical. To be noted: octanol/water.

`CC(C)c1nc(C(=O)N2CCOC3(CCN(Cc4cccc(Cl)c4)CC3)C2)cs1`: the IC50 was 5.01 nM in [1] and 10 nM in data set [2].

With `O=C(c1ccoc1)N1CCOC2(CCN(Cc3ccc(Cl)cc3)CC2)C1`, the figures for the IC50 in data set [1] and in [2] were 126 nM and 63.1 nM, respectively.

Consider `O=C(c1ccco1)N1CCC2(CCN(Cc3ccccc3)CC2)CC1`, for which the IC50 in data set [1] was over 1000 nM; in [2], 79.4 nM.

On to `O=C(c1ccsc1)N1CCC2(CCN(Cc3ccccc3)CC2)CC1`, for which the figures for the IC50 in data set [1] and in data set [2] were 316 nM and 15.8 nM, respectively.

Consider `O=C(O[C@H]1C[N+]2(CCCOc3ccccc3)CCC1CC2)C(O)(c1cccs1)c1cccs1` [ACLIDINIUM BROMIDE], for which the IC50 in data set [3] is 0.1 nM; in data set [4], 0.2 nM; in [5] it was 0.158 nM.

As to `CC(C)c1nc(C(=O)N2CCOC3(CCN(Cc4ccccc4Cl)CC3)C2)cs1`, the IC50 was 20 nM in [1] and 25.1 nM in [2].

With `O=C(c1cccs1)N1CCOC2(CCN(Cc3ccc(Cl)cc3)CC2)C1`, the IC50 is 63.1 nM in [1] and 20 nM in data set [2].

Regarding `CCc1nc(C(=O)N2CCOC3(CCN(Cc4ccc(Cl)cc4)CC3)C2)cs1`, the IC50 in [1] was 15.8 nM; in [2] it was 12.6 nM.

In [2], `O=C(c1ncccn1)N1CCC2(CCN(Cc3ccccc3)CC2)CC1` had an IC50 of 251 nM. The same molecule yielded an inhibition in data set [6] of under 50%.

In the case of `Cc1nc(C(=O)N2CCOC3(CCN(Cc4cccc(Cl)c4)CC3)C2)cs1`, the IC50 in data set [1] and in data set [2] was 1.26 nM in each case.

Regarding `O=C(c1cscn1)N1CCOC2(CCN(Cc3ccc(Cl)cc3)CC2)C1`, the results for the IC50 in data set [1] and in [2] were 158 nM and 50.1 nM, respectively.

Turning to `O=C(c1cccnc1)N1CCC2(CCN(Cc3ccccc3)CC2)CC1`, the IC50 in [1] is over 1000 nM; in [2], 79.4 nM.

Turning to `O=C(c1ccon1)N1CCOC2(CCN(Cc3ccc(Cl)cc3)CC2)C1`, the 50% inhibitory concentration (IC50) is 398 nM in data set [1] and 79.4 nM in [2].

`O=C(c1ccco1)N1CCOC2(CCN(Cc3ccc(Cl)cc3)CC2)C1`: the IC50 in data set [1] was 63.1 nM; in [2], 25.1 nM.

Turning to `Cc1nc(C(=O)N2CCOC3(CCN(Cc4ccc(Cl)cc4)CC3)C2)cs1`, the IC50 was 10 nM in [1] and 3.16 nM in [2]. Moreover, in data set [7], the microsomal CLint turned out to be 11 µL/min/mg. This molecule also had a CL in data set [8] of 47 µL/min/mg. In addition, the logD in [9] is 2.2.

Turning to `Cc1ccc(C(=O)N2CCOC3(CCN(Cc4ccc(Cl)cc4)CC3)C2)o1`, the half-maximal inhibitory concentration (IC50) in [1] and in [2] was 50.1 nM throughout.

For the molecule `O=C(c1ccc2occc2c1)N1CCOC2(CCN(Cc3ccc(Cl)cc3)CC2)C1`, the IC50 in [1] and in [2] was 31.6 nM each time.

For `Cc1nc(C(=O)N2CCCC3(CCN(Cc4ccccc4)CC3)C2)cs1`, the IC50 in data set [1] and in data set [2] was over 1000 nM in each case.

In the case of `Cc1cccc(CN2CCC3(CC2)CCN(C(=O)c2ccccc2)CC3)c1`, the IC50 in data set [1] was 100 nM; in data set [2], 2.51 nM.

Regarding `CC(C)c1nc(C(=O)N2CCOC3(CCN(Cc4ccc(Cl)cc4)CC3)C2)cs1`, the IC50 in data set [1] is 15.8 nM; in [2], 31.6 nM.

For `Cc1nc(C(=O)N2CCCC3(CCN(Cc4ccc(Cl)cc4)CC3)C2)cs1`, the IC50 in data set [1] and in [2] was over 1000 nM each time.

Consider `O=C(c1ncccn1)N1CCOC2(CCN(Cc3ccc(Cl)cc3)CC2)C1`, for which the IC50 is 398 nM in [1] and 126 nM in data set [2].

In the case of `Cc1ccccc1CN1CCC2(CC1)CN(C(=O)c1csc(C(C)C)n1)CCO2`, the 50% inhibitory concentration (IC50) in data set [1] is 398 nM; in data set [2] it was 794 nM.

`O=C(c1ccccc1)N1CCOC2(CCN(Cc3ccc(Cl)cc3)CC2)C1`: the values for the half-inhibitory concentration (IC50) in [1] and in [2] were 251 nM and 126 nM, respectively.

For `CC(C)c1nc(C(=O)N2CCOC3(CCN(Cc4ccccc4)CC3)C2)cs1`, the IC50 in [1] was 3.98 nM; in [2], 15.8 nM.

Regarding `Cc1nc(C(=O)N2CCOC3(CCN(Cc4ccccc4Cl)CC3)C2)cs1`, the figures for the IC50 in data set [1] and in data set [2] were 7.94 nM and 3.16 nM, respectively.

Turning to `CC(C)(C)c1nc(C(=O)N2CCOC3(CCN(Cc4ccc(Cl)cc4)CC3)C2)cs1`, the 50% inhibitory concentration (IC50) in [1] and in data set [2] was over 1000 nM throughout.

On to `O=C(c1ccccc1)N1CCC2(CCN(Cc3cccc(Cl)c3)CC2)CC1`, for which the IC50 in data set [1] was 100 nM; in [2], 3.98 nM.

Regarding `CCOc1ccccc1C(=O)N1CCC2(CCN(Cc3ccccc3)CC2)CC1`, the IC50 was 794 nM in data set [1] and 79.4 nM in data set [2].

For `O=C(c1cnsn1)N1CCOC2(CCN(Cc3ccc(Cl)cc3)CC2)C1`, the concentration for half-maximal inhibition (IC50) in [1] was 200 nM; in data set [2], 39.8 nM.

In the case of `C[N+]1(C)[C@@H]2C[C@@H](OC(=O)C(O)(c3cccs3)c3cccs3)C[C@H]1[C@@H]1O[C@@H]12` [TIOTROPIUM BROMIDE], the IC50 in data set [4] is 0.0398 nM; in [5], 0.1 nM.

`O=C(c1cccnc1)N1CCOC2(CCN(Cc3ccc(Cl)cc3)CC2)C1`: the IC50 in [1] was over 1000 nM.

Take `O=C(c1ccccc1)N1CCC2(CCN(Cc3ccccc3)CC2)CC1`: the values for the IC50 in data set [1] and in [2] were 126 nM and 6.31 nM, respectively.

With `O=C(c1ccc(CO)o1)N1CCOC2(CCN(Cc3ccc(Cl)cc3)CC2)C1`, the IC50 in data set [1] was 100 nM; in data set [2] it was 126 nM.

Usually IC50 stands for the concentration at which inhibition is half-maximal. Read a low IC50 as greater potency in that assay. A word on the inhibition: it is the change of the read-out against control, counted positive when it falls. Broadly, the microsomal CLint is a measure of how fast metabolising enzymes remove a compound, apart from limits set by blood flow. High values mean faster metabolism, low ones greater metabolic stability. By logD is commonly meant the decadic logarithm of the distribution of all forms, ionised or not, between an organic phase and buffer at a given pH. Read a high logD as a more lipophilic compound.
